A value given as a limit tells only on which side of the number the result lay.

One may read the Ki as a dissociation constant, usually derived from enzyme kinetics or from competition with a known ligand.

Type in all cases: biochemical
For one assay, the target named is T1, Aurora-2 (Homo sapiens, UniProt O14965).
T1 sequence (O14965 1-403): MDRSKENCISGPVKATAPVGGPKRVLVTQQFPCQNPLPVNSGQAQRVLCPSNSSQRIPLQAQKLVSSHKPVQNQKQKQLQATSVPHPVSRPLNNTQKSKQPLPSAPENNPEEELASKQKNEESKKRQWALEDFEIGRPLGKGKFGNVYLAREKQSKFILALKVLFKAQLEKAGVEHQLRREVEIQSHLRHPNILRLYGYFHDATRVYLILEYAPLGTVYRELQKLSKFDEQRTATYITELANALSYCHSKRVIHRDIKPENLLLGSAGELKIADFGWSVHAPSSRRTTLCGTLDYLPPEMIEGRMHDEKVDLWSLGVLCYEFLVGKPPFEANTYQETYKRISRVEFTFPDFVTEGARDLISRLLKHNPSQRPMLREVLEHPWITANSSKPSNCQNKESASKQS
Kind of assay: Aurora-A (Aurora-2) Inhibition Assay, coupled enzyme assay. Conditions: enzyme inhibition data (Ki), Table 11; read-out: AurA Ki. The method, then:
Compounds are screened for their ability to inhibit Aurora-2 using a standard coupled enzyme assay (Fox et al., Protein Sci., (1998) 7, 2249). Assays are carried out in a mixture of 100 mM Hepes (pH7.5), 10 mM MgCl2, 1 mM DTT, 25 mM NaCl, 2.5 mM phosphoenolpyruvate, 300 μM NADH, 30 μg/ml pyruvate kinase and 10 μg/ml lactate dehydrogenase. Final substrate concentrations in the assay are 400 μM ATP (Sigma Chemicals) and 570 μM peptide (Kemptide, American Peptide, Sunnyvale, Calif.). Assays are carried out at 30° C. and in the presence of 40 nM Aurora-2.
An assay stock buffer solution is prepared containing all of the reagents listed above, with the exception of Aurora-2 and the test compound of interest. 55 μl of the stock solution is placed in a 96 well plate followed by addition of 2 μl of DMSO stock containing serial dilutions of the test compound (typically starting from a final concentration of 7.5 μM). The plate is preincubated for 10 minutes at 30° C. and the reaction initiated by addition of 10 μl of Aurora-2. Initial reaction rates are determined with a Molecular Devices SpectraMax Plus plate reader over a 10 minute time course. IC50 and Ki data are calculated from non-linear regression analysis using the Prism software package (GraphPad Prism version 3.0cx for Macintosh, GraphPad Software, San Diego Calif., USA).

The next assay addresses T2, Itk (Homo sapiens, UniProt Q08881).
T2 sequence (Q08881 1-620): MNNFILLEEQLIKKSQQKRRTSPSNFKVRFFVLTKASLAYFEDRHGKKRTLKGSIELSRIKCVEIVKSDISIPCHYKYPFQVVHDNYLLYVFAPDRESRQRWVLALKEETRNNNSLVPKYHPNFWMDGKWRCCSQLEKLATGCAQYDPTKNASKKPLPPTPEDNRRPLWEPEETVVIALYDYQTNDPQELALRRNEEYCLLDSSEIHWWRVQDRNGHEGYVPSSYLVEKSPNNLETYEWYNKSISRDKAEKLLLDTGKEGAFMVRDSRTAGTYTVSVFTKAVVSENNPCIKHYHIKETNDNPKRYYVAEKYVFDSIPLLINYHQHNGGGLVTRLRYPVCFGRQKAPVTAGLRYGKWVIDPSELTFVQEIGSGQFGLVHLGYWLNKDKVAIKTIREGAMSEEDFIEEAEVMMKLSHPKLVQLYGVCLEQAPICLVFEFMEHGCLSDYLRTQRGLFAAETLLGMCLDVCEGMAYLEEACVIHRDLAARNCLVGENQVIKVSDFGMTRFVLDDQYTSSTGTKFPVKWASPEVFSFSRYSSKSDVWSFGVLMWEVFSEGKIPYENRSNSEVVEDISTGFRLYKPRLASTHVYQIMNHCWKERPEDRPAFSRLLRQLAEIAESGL
Put plainly: ITK Inhibition Assay (Radiometric), radioactive-phosphate incorporation. The settings on record: enzyme inhibition data (Ki), Table 11; radiometric or UV assay not stated. An outline of the steps:
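Radiometric 33P incorporation into SAM68 peptide (D332-443) with filter capture and scintillation counting; 10 min pre-incubation then 10 min reaction at 25° C. IC50 format: 30 nM Itk, 15 μM ATP, 2 μM peptide, HEPES pH 7.5. Ki(app) format: 50 nM Itk, 7.5 μM ATP, 3 μM peptide, MOPS pH 7.0.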

The next assay has as its target c-Met (Homo sapiens, UniProt P08581). Put plainly: c-Met Inhibition Assay, coupled enzyme system. The settings on record: enzyme inhibition data (Ki), Table 11. The procedure, abridged: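 Pyruvate kinase/lactate dehydrogenase-coupled NADH assay in HEPES pH 7.5 with 80 nM c-Met, 200 μM ATP and 10 μM polyGluTyr at 30° C. Compound (0.006–12.5 μM final, 12-point) preincubated 10 min before ATP start; rates over 10 min gave Ki.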

A further assay addresses T3, JAK3 (Homo sapiens, UniProt P52333).
T3 sequence (P52333 1-1124): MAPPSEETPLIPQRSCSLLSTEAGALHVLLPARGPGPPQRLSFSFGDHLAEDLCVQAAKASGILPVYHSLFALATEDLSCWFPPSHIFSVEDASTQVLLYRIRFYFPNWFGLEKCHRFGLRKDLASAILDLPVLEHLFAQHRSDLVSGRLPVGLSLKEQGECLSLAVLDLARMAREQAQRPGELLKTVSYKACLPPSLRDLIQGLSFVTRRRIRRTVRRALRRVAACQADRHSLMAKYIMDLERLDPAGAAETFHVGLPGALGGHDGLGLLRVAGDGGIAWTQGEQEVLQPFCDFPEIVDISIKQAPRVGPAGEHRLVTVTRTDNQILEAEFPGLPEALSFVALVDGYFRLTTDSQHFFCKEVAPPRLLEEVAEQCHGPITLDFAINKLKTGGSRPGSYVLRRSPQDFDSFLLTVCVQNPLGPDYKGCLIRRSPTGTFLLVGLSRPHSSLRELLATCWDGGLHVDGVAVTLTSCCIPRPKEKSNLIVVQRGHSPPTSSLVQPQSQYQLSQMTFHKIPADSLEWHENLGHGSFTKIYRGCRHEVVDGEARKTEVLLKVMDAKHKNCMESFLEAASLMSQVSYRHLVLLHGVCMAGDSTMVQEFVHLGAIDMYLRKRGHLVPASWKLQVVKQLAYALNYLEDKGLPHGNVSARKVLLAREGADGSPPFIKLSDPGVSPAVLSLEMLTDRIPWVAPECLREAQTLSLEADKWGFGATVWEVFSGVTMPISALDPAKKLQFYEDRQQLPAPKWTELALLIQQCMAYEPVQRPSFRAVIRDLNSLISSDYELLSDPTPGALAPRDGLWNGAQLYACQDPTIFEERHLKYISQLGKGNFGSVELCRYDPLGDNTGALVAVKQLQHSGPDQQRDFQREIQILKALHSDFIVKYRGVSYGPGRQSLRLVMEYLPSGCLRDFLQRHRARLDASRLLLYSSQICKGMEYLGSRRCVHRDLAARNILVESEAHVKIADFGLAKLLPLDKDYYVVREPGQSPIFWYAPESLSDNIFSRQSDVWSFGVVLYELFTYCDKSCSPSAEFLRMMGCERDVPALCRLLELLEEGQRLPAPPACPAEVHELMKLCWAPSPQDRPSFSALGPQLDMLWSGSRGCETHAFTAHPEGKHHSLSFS
Kind of assay: JAK3 Inhibition Assay, 33P incorporation. The settings on record: enzyme inhibition data (Ki), Table 11. The procedure, abridged:
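33P incorporation into 1 μM poly(Glu)4Tyr was counted after TCA stop and glass fiber filtration. The 20 min reaction ran at 25 °C with 1 nM JAK3 and 5 μM ATP (200 uCi/μmole). Buffer was 100 mM HEPES pH 7.4, 10 mM MgCl2, 25 mM NaCl, 1 mM DTT, 0.01% BSA.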

Chain of c-Met (P08581 25-1390): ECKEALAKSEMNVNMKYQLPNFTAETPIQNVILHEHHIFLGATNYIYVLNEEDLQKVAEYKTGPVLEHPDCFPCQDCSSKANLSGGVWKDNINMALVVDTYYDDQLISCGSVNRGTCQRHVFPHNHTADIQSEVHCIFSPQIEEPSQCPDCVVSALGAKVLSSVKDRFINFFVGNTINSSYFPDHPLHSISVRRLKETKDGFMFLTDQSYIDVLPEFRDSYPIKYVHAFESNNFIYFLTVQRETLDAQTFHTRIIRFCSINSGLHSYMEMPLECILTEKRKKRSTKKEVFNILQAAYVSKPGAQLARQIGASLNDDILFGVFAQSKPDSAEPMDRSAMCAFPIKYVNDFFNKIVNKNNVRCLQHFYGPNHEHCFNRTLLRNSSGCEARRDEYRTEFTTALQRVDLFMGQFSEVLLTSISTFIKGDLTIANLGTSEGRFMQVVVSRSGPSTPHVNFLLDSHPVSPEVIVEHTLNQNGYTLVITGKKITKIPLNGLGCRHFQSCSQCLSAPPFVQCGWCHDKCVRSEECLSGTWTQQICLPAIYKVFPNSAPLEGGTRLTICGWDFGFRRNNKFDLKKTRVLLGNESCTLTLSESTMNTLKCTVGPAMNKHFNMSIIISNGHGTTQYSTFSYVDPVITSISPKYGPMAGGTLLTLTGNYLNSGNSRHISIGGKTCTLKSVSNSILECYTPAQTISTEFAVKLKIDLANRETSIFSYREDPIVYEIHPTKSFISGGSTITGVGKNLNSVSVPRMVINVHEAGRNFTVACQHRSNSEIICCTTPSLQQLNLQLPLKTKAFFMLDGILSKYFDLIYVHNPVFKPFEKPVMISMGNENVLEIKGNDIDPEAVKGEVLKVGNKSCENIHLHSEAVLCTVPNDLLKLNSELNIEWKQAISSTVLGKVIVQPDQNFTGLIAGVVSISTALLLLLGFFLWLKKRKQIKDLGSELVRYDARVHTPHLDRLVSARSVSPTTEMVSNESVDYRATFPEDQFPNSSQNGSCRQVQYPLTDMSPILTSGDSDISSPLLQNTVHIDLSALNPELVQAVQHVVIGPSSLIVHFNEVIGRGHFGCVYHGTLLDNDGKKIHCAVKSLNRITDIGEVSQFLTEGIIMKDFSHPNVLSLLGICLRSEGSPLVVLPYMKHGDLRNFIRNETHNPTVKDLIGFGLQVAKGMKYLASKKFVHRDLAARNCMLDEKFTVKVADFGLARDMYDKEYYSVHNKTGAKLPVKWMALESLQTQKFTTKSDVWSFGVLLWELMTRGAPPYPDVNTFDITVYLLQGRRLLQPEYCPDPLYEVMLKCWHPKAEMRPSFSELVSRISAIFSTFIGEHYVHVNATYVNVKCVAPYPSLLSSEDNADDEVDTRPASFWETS

`CC(C)(C)OC(=O)NCc1ccc(-c2cnc3c(-c4ccccn4)c(N)nn3c2)cc1` [Compound V-192]: the Ki on Aurora-2 and at Itk was less than 500 nM in each case.
As to `Nc1nn2cc(-c3ccc(CN4CCCNCC4)cc3)cnc2c1-c1ccccn1` [Compound V-224], the Ki on c-Met, at Aurora-2 and at Itk was less than 500 nM throughout.
For the compound `CCOC(=O)C1CCCN(CCCc2cnc3c(-c4ccccn4)c(N)nn3c2)C1` (centres unmarked) [Compound V-330], the Ki was 500 to 5000 nM on c-Met, 500 to 5000 nM at Itk and more than 5000 nM on JAK3.
As for `CC(C)N1CCN(CCCc2cnc3c(-c4ccccn4)c(N)nn3c2)CC1` [Compound V-331], the Ki was 500 to 5000 nM at c-Met, 500 to 5000 nM on Itk and more than 5000 nM on JAK3.
`Cc1cnc2c(-c3cc(NC4CCCC4)ncn3)c(N)nn2c1` [Compound V-332]: the Ki at c-Met is less than 500 nM; on Itk, less than 500 nM; at JAK3 it was 500 to 5000 nM.
Regarding `Cc1cnc2c(-c3cc(NC4CC5CCC4C5)ncn3)c(N)nn2c1` (centres unmarked) [Compound V-333], the Ki was less than 500 nM on c-Met, less than 500 nM at Itk and 500 to 5000 nM on JAK3.
For `Cc1cnc2c(-c3cc(N[C@H]4CCC[C@@H]4OCc4ccccc4)ncn3)c(N)nn2c1` [Compound V-334], the inhibition constant Ki is less than 500 nM on c-Met, 500 to 5000 nM at Itk and 500 to 5000 nM at JAK3.
With `Cc1cnc2c(-c3cc(N[C@@H]4CCOC4)ncn3)c(N)nn2c1` [Compound V-335], the Ki on c-Met is less than 500 nM; on Itk, 500 to 5000 nM; on JAK3, 500 to 5000 nM.
As to `Cc1cnc2c(-c3cc(N[C@@H]4CCC[C@H]4OCc4ccccc4)ncn3)c(N)nn2c1` [Compound V-336], the Ki on c-Met was less than 500 nM; on Itk it was 500 to 5000 nM; at JAK3, 500 to 5000 nM.
For `Cc1cnc2c(-c3cc(NC4CCNC4)ncn3)c(N)nn2c1` (centres unmarked) [Compound V-337], the Ki at c-Met, on Itk and on JAK3 was less than 500 nM in each case.
In the case of `Cc1cnc2c(-c3cc(N4CCCC(C)C4)ncn3)c(N)nn2c1` (centres unmarked) [Compound V-339], the inhibition constant (Ki) at c-Met, at Itk and on JAK3 was less than 500 nM in each case.
Regarding `Cc1cnc2c(-c3cc(N4CCCC(CO)C4)ncn3)c(N)nn2c1` (centres unmarked) [Compound V-340], the Ki was less than 500 nM at c-Met, 500 to 5000 nM at Itk and 500 to 5000 nM at JAK3.
On to `Cc1cnc2c(-c3cc(N4CCC(C(N)=O)CC4)ncn3)c(N)nn2c1` [Compound V-341], for which the Ki at c-Met, at Itk and on JAK3 was 500 to 5000 nM throughout.
On to `Cc1cnc2c(-c3cc(N4CCCC(O)C4)ncn3)c(N)nn2c1` (centres unmarked) [Compound V-342], for which the Ki on c-Met was less than 500 nM; at Itk, 500 to 5000 nM; at JAK3, 500 to 5000 nM.
`Cc1cnc2c(-c3cc(N4CCC(NC(=O)C(F)(F)F)C4)ncn3)c(N)nn2c1` (centres unmarked) [Compound V-343]: the Ki at c-Met, at Itk and on JAK3 was 500 to 5000 nM each time.

(Values after patent publication US7528138B2, “Pyrazolo[1,5-a]pyrimidines useful as inhibitors of protein kinases” (Vertex Pharmaceuticals Incorporated, priority 2004, dated 2009).)
